Data as given in patent US20240246942A1, “KINASE INHIBITORS FOR THE TREATMENT OF NEURODEGENERATIVE DISEASES” (priority 2020, published 2024).
Like-named read-outs stand apart in the source and are kept apart here.

Experiments:
[1] = molecular target: T1, panel of 374 wild-type kinases (Homo sapiens, UniProt Q56UN5); experiment: biochemical; conditions: read-out: % Enzyme Activity (relative to DMSO controls), kinase YSK4/MAP3K19
T1 construct: purchased Reaction Biology Corporation

[2] = molecular target: T2, panel of 374 wild-type kinases (Homo sapiens, UniProt O43293); experiment: biochemical; conditions: read-out: % Enzyme Activity (relative to DMSO controls), kinase ZIPK/DAPK3
T2 construct: purchased Reaction Biology Corporation

[3] = molecular target: T3, panel of 374 wild-type kinases (Homo sapiens, UniProt P68400); experiment: biochemical; conditions: CK2a, read-out: % Enzyme Activity (relative to DMSO controls)
T3 construct: purchased Reaction Biology Corporation

[4] = molecular target: T4, panel of 374 wild-type kinases (Homo sapiens, UniProt O15111); experiment: biochemical; conditions: read-out: % Enzyme Activity (relative to DMSO controls), IKKa/CHUK
T4 construct: purchased Reaction Biology Corporation

[5] = molecular target: T5, panel of 374 wild-type kinases (Homo sapiens, UniProt O60307); experiment: biochemical; conditions: read-out: % Enzyme Activity (relative to DMSO controls), MAST3
T5 construct: purchased Reaction Biology Corporation

[6] = molecular target: T6, panel of 374 wild-type kinases (Homo sapiens, UniProt O14578); experiment: biochemical; conditions: read-out: % Enzyme Activity (relative to DMSO controls), kinase STK21/CIT
T6 construct: purchased Reaction Biology Corporation

SHSY5Y cells = experiment: MTT cytotoxicity assay; assay type: cell-based; set-up: dose or concentration left out as unconfirmed; conditions: 48 hrs, average of ≥2 experiments;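 further: compounds tested at 10 µM final concentration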
Protocol: A day before the assay, cells were plated at 50,000/well in 96 well plates in the culture medium. […] After the incubation, cells were subjected to MTT assay using Vybrant MTT Cell Proliferation kit as directed by the vendor (Life Technologies).

[7] = molecular target: T7, panel of 374 wild-type kinases (Homo sapiens, UniProt Q12852); experiment: biochemical; conditions: read-out: % Enzyme Activity (relative to DMSO controls), DLK/MAP3K12; 5 uM
T7 construct: purchased Reaction Biology Corporation

[8] = molecular target: T8, panel of 374 wild-type kinases (Homo sapiens, UniProt Q02156); experiment: biochemical; conditions: read-out: % Enzyme Activity (relative to DMSO controls), kinase PKCepsilon; 5 uM
T8 construct: purchased Reaction Biology Corporation

[9] = molecular target: T9, panel of 374 wild-type kinases (Homo sapiens, UniProt Q00534); experiment: biochemical; conditions: 5 uM
T9 construct: purchased Reaction Biology Corporation

[10] = molecular target: T10, panel of 374 wild-type kinases (Homo sapiens, UniProt Q99640); experiment: biochemical; conditions: read-out: % Enzyme Activity (relative to DMSO controls), kinase PKMYT1; 5 uM
T10 construct: purchased Reaction Biology Corporation

[11] = molecular target: T11, panel of 374 wild-type kinases (Homo sapiens, UniProt Q9Y572); experiment: biochemical; conditions: read-out: % Enzyme Activity (relative to DMSO controls), kinase RIPK3; 5 uM
T11 construct: purchased Reaction Biology Corporation

[12] = molecular target: T12, panel of 374 wild-type kinases (Homo sapiens, UniProt P30291); experiment: biochemical; conditions: read-out: % Enzyme Activity (relative to DMSO controls), kinase WEE1; 5 uM
T12 construct: purchased Reaction Biology Corporation

[13] = molecular target: T13, panel of 374 wild-type kinases (Homo sapiens, UniProt Q8IY84); experiment: biochemical; conditions: read-out: % Enzyme Activity (relative to DMSO controls), NIM1; 5 uM
T13 construct: purchased Reaction Biology Corporation

[14] = tested on: JNK3-dependent phosphorylation of APP at T668; experiment: JNK3 inhibition assay in rat primary neuron cultures (Western blot, anisomycin activated); assay type: cell-based; conditions: even at a concentration as low as 10 nM; FIGS. 5A-5C
Protocol: Both hippocampal and cortical neurons were isolated from E18 rat embryos and cultured in NbActive 1 medium that contains B27 (Brainbits, LLC) plus penicillin/streptomycin (Life Technologies). At the 7th day in culture, cells were treated with different concentrations of inhibitors diluted in DMSO and 80 ng/ml Anisomycin for 30 min to activate the endogenous JNK3. At the end of incubation time, whole cell lysates were prepared in RIPA buffer containing 50 mM Tris (pH 8.0), 150 mM NaCl, 2 mM EDTA, 1% NP-40, 0.5% deoxycholate supplemented with 10 mM Na pyrophosphate, 1 mM sodium orthovanadate, 25 mM NaF, 10 μg/ml leupeptin, 10 μg/ml aprotinin, 1 mM β-glycerophosphate, and 2 mM PMSF. The lysates were subjected to Western blotting to detect whether inhibitors block JNK3-dependent phosphorylation of APP at T668 and c-jun at S73. Phospho-APP^T668, phosphor-c-jun^S73, APP, and c-jun antibodies were from Cell Signaling Technology.

JNK3α1 = JNK3α1 (Homo sapiens, UniProt P53779); assay type: biochemical; conditions: mean of ≥2 experiments; read-out: Biochemical inhibition IC50 JNK3
Protocol: (§1) A 10-point titration of all compounds was carried out in 3-fold dilutions from 10 μM to 0.5 nM.

JNK1 = JNK1 (Homo sapiens, UniProt P45983); experiment: JNK1 homogeneous time-resolved fluorescence enzyme inhibition assay; assay type: biochemical; conditions: mean of ≥2 experiments; read-out: Biochemical inhibition IC50 JNK1
Protocol: as §1

[15] = read-out: % Enzyme Activity (relative to DMSO controls), CDK6/cyclin D1
[16] = read-out: % Enzyme Activity (relative to DMSO controls), CDK6/cyclin D3

T9 sequence (Q00534 whole entry): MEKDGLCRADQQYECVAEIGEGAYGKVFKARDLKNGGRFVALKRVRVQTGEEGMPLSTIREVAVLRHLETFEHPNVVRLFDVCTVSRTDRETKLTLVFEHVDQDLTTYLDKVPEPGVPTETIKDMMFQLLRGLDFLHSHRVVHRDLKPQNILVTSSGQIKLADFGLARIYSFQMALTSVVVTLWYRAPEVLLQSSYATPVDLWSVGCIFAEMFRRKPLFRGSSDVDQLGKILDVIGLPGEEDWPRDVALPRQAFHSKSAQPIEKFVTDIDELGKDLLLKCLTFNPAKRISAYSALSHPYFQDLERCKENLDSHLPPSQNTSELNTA
T13 sequence (Q8IY84 whole entry): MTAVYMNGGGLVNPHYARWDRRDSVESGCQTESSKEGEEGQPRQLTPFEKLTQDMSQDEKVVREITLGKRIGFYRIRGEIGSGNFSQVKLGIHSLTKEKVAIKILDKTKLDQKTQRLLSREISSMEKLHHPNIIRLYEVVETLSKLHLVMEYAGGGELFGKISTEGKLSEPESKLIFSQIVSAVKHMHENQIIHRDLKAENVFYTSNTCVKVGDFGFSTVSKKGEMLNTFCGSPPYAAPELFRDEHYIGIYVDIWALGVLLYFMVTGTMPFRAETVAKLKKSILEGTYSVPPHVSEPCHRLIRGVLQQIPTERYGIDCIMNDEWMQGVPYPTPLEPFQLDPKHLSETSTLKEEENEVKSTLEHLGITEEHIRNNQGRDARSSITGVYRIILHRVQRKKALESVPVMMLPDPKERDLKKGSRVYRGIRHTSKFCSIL
T2 sequence (O43293 whole entry): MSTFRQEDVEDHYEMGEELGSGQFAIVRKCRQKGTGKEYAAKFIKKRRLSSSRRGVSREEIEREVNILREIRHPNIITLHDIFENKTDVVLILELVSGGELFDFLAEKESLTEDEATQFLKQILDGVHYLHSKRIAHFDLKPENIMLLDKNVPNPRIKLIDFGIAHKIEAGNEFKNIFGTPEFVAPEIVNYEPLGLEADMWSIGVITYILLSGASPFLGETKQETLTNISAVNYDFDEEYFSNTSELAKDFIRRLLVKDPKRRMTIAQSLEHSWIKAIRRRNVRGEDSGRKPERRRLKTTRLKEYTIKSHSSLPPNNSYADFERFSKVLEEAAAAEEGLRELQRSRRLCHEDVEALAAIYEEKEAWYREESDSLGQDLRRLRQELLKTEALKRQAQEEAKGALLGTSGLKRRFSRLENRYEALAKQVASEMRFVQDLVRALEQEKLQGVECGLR
T1 sequence (Q56UN5 whole entry): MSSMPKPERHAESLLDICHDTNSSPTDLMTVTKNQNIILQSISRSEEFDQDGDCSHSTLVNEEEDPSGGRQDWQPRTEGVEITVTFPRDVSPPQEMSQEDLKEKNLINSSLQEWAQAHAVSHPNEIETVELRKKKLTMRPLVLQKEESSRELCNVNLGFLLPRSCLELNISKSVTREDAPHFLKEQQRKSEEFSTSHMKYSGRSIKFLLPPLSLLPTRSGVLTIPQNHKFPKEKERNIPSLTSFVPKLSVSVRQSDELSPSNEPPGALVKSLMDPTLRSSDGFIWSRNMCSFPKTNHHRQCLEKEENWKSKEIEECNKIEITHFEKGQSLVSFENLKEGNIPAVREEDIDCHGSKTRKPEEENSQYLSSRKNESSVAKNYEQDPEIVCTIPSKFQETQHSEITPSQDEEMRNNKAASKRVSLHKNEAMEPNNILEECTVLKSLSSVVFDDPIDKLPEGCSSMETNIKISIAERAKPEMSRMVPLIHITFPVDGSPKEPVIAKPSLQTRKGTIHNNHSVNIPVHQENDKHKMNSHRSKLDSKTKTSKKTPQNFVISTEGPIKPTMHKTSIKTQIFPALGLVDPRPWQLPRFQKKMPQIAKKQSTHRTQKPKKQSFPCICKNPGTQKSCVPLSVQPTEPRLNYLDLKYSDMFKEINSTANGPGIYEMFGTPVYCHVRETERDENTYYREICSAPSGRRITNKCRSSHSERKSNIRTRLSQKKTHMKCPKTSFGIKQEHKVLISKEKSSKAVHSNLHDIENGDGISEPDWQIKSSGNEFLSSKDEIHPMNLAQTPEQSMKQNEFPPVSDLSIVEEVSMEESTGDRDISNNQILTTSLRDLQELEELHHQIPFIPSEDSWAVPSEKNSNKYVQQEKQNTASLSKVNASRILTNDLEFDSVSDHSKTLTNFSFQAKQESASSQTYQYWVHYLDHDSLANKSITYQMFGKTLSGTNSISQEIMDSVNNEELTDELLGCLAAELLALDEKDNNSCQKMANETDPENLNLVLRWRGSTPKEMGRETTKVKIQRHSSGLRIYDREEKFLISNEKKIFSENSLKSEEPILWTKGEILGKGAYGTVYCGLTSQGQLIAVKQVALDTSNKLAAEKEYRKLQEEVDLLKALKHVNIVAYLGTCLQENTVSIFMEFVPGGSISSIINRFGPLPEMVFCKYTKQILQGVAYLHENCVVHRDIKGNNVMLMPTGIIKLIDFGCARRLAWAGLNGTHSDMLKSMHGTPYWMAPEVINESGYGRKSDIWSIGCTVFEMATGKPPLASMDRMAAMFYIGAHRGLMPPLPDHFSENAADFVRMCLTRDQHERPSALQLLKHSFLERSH
T3 sequence (P68400 whole entry): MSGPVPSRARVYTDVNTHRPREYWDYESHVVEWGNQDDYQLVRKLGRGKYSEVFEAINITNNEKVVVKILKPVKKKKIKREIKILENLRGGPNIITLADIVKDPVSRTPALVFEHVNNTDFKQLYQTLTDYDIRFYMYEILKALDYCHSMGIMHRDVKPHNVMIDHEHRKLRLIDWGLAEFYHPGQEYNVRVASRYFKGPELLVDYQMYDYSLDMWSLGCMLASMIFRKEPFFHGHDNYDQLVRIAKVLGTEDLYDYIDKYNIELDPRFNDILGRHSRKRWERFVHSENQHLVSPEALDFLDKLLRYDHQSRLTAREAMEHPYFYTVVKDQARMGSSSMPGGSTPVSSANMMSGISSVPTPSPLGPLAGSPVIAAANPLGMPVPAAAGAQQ
T5 sequence (O60307 whole entry): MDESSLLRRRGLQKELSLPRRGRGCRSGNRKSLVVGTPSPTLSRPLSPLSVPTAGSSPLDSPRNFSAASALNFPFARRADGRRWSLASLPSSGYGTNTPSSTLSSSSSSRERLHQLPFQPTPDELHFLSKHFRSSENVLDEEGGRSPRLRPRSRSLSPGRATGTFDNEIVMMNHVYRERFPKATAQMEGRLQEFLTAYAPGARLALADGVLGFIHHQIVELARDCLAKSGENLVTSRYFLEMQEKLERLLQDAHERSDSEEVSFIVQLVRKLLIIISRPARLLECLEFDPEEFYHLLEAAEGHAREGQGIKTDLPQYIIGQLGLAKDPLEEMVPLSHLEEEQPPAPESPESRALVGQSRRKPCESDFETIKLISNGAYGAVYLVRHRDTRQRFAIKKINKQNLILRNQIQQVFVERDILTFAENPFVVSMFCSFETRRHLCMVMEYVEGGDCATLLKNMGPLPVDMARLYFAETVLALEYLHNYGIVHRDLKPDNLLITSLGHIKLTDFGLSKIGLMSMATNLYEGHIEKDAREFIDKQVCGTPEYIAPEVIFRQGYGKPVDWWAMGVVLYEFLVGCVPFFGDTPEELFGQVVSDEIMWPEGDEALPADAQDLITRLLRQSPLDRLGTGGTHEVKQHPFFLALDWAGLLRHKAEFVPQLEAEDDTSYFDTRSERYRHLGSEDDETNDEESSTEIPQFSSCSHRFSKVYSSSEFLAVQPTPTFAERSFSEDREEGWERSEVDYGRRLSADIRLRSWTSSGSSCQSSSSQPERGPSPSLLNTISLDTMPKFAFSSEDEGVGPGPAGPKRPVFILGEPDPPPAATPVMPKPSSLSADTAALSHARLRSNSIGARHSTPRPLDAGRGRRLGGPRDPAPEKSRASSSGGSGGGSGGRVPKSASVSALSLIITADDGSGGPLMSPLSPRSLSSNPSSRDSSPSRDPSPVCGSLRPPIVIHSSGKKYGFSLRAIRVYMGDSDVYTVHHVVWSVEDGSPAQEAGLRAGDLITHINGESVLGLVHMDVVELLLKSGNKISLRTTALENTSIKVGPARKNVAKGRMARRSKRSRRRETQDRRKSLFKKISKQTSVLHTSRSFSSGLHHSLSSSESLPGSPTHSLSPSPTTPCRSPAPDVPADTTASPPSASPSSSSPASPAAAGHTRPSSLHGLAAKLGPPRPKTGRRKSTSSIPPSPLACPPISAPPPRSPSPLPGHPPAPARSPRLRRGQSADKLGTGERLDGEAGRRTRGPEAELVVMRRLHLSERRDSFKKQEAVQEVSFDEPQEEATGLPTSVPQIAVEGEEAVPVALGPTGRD
T4 sequence (O15111 whole entry): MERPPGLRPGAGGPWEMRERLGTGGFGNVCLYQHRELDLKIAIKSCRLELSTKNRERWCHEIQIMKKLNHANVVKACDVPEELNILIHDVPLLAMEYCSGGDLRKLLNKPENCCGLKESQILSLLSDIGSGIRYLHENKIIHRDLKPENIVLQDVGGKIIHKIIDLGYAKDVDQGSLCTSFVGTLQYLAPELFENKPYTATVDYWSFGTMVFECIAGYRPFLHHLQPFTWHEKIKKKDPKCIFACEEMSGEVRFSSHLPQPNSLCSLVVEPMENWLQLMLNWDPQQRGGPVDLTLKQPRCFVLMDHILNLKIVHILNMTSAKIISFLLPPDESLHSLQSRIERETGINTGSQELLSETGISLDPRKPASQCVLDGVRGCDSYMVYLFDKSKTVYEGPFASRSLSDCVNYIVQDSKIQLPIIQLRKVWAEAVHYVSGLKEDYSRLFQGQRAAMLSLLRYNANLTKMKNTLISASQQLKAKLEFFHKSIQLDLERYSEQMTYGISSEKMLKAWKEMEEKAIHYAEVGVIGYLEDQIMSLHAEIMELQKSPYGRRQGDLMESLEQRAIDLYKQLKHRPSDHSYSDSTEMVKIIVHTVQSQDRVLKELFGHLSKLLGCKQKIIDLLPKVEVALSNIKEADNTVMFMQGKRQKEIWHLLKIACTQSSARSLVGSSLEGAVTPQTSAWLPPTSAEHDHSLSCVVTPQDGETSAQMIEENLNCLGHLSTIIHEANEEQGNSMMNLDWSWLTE

Cc1sc(C(=O)NC2COC2)cc1-n1cc(NC(=O)Nc2c(F)cccc2Cl)cn1 [Compound 27, 4-(4-(3-(2-chloro-6-fluorophenyl)ureido)-1H-pyrazol-1-yl)-5-methyl-N-(oxetan-3-yl)thiophene-2-carboxamide]
remaining activity at 10 µM ([1]; 10 uM): 95.5% | remaining activity at 10 µM ([2]; 10 uM): 101% | remaining activity at 10 µM ([3]; 10 uM): 97% | remaining activity at 10 µM ([4]; 10 uM): 101% | remaining activity at 10 µM ([5]; 10 uM): 96.7% | remaining activity at 10 µM ([6]; 10 uM): 98.8% | MTT cell viability (SHSY5Y cells): 111%

O=C(Nc1cnn(-c2csc(C(=O)NC3COC3)c2)c1)Nc1c(F)cccc1Cl [Compound 25, 4-(4-(3-(2-chloro-6-fluorophenyl)ureido)-1H-pyrazol-1-yl)-N-(oxetan-3-yl)thiophene-2-carboxamide]
remaining activity at 5 µM [7]: 82.2% | remaining activity at 5 µM [8]: 94.2% | remaining activity at 5 µM [9, 15]: 105% | remaining activity at 5 µM [9, 16]: 92.6% | remaining activity at 5 µM [10]: 89.6% | remaining activity at 5 µM [11]: 97.5% | remaining activity at 5 µM ([2]; 5 uM): 108% | remaining activity at 5 µM ([3]; 5 uM): 90.5% | remaining activity at 5 µM [12]: 85.2% | remaining activity at 5 µM ([4]; 5 uM): 108% | remaining activity at 5 µM ([5]; 5 uM): 108% | remaining activity at 5 µM [13]: 70.7% | MTT cell viability (SHSY5Y cells): 102%

O=C(Nc1cnn(-c2csc(C(=O)NC3COC3)c2)c1)Nc1ccccc1Cl [Compound 17, 4-(4-(3-(2-chlorophenyl)ureido)-1H-pyrazol-1-yl)-N-(oxetan-3-yl)thiophene-2-carboxamide]
inhibition of phosphorylation of residue T668 of APP [14]: significantly inhibited | remaining activity at 5 µM ([1]; 5 uM): 105% | remaining activity at 5 µM [7]: 96.5% | remaining activity at 5 µM [8]: 102% | remaining activity at 5 µM [9, 15]: 95.4% | remaining activity at 5 µM [9, 16]: 114% | remaining activity at 5 µM [10]: 87% | remaining activity at 5 µM [11]: 101% | remaining activity at 5 µM [12]: 124% | remaining activity at 5 µM [13]: 101% | remaining activity at 5 µM ([6]; 5 uM): 90.1% | MTT cell viability (SHSY5Y cells): 104% | IC50 (JNK3α1): 35 nM | IC50 (JNK1): 5900 nM
